According to patent publication US20210128566A1, “NOVEL FUNCTIONALIZED PURINE-2,6-DIONES AND THEIR USE IN MEDICINE” (THOMAS HELLEDAYS STIFTELSE FÖR MEDICINSK FORSKNING, priority 2017, published 2021):

The molecules below were run against recombinant human NUDT5 (Homo sapiens, UniProt Q9UKK9) (assay: NUDT5 inhibitor activity by malachite green reporter assay). Details: Table 3; 6 nM NUDT5, 50 μM ADP-Ribose, 15 minutes at room temperature.
Assay type: biochemical
Description: NUDT5 inhibitors were evaluated using a coupled enzymatic assay with detection of inorganic phosphate (Pi) using the malachite green assay. Following enzymatic hydrolysis of ADP-Ribose (Sigma-Aldrich A0572) by NUDT5, to yield AMP and ribose-5-phosphate, the latter product is continuously processed by a significant excess of alkaline phosphatase (Sigma-Aldrich, P0114). Formation of Pi is quantified based on the green complex (that absorbs at 630 nm) formed between malachite green and molybdate according to published procedure (Baykov, A. A., Evtushenko, O. A. and Avaeva, S. M., Anal Biochem, 171, 266-270 (1988)). Assay buffer consisted of 10 mM Tris-acetate at pH 8.0, 40 mM sodium chloride, 10 mM magnesium acetate, 0.005% Tween-20 and 1 mM dithiothreitol (DTT). The final conditions consisted of 6 nM recombinant human NUDT5, 50 μM ADP-Ribose and 10 U/ml of calf intestine alkaline phosphatase. The plates with compounds, enzymes and substrate were incubated at room temperature for 15 minutes, after which the reaction was terminated and the signal developed by the addition of the malachite green reagent using a MultiDrop (Thermo Scientific). Following vigorous shaking on plate shakers for a minimum of eight minutes the absorbance was read in a microplate reader (HidexSense) using a filter at 630 nm and a read time of 0.1 s per well. Inhibitors were used in dilutions from 100 μM to 1.7 nM in 3-fold dilution steps. Experiments were run in duplicate and confirmed in two independent experiments. IC50 values were determined by curve fitting using ExcelFit.

IC50 | Compound
19.3 nM | Cn1c(=O)c2c(nc(N3CCCNCC3)n2Cc2nnc(-c3ccc(Cl)c(Cl)c3)o2)n(C)c1=O [Example 27, 8-(1,4-diazepan-1-yl)-7-{[5-(3,4-dichlorophenyl)-1,3,4-oxadiazol-2-yl]methyl}-1,3-dimethyl-2,3,6,7-tetrahydro-1H-purine-2,6-dione]
76.7 nM | CC(=O)N1CCN(c2nc3c(c(=O)n(C)c(=O)n3C)n2Cc2nnc(-c3ccc(Cl)c(Cl)c3)o2)CC1 [Example 32, 8-(4-acetylpiperazin-1-yl)-7-{[5-(3,4-dichlorophenyl)-1,3,4-oxadiazol-2-yl]methyl}-1,3-dimethyl-2,3,6,7-tetrahydro-1H-purine-2,6-dione]
29.1 nM | COc1nc2c(c(=O)n(C)c(=O)n2C)n1Cc1nnc(-c2ccc(Cl)c(Cl)c2)o1 [Example 1, 7-{[5-(3,4-dichlorophenyl)-1,3,4-oxadiazol-2-yl]methyl}-8-methoxy-1,3-dimethyl-2,3,6,7-tetrahydro-1H-purine-2,6-dione]
30 nM | Cn1c(=O)c2c(nc(N3CCC(N)C3)n2Cc2nnc(-c3ccc(Cl)c(Cl)c3)o2)n(C)c1=O (centres unmarked) [Example 25, 8-(3-aminopyrrolidin-1-yl)-7-{[5-(3,4-dichlorophenyl)-1,3,4-oxadiazol-2-yl]methyl}-1,3-dimethyl-2,3,6,7-tetrahydro-1H-purine-2,6-dione]
12.5 nM | CNc1nc2c(c(=O)n(C)c(=O)n2C)n1Cc1nnc(-c2ccc(Cl)c(Cl)c2)o1 [Example 5, 7-{[5-(3,4-dichlorophenyl)-1,3,4-oxadiazo-2-yl]methyl}-1,3-dimethyl-8-(methylamino)-2,3,6,7-tetrahydro-1H-purine-2,6-dione]
24.7 nM | Cn1c(=O)c2c(nc(N3CCC(O)C3)n2Cc2nnc(-c3ccc(Cl)c(Cl)c3)o2)n(C)c1=O (centres unmarked) [Example 34, 7-{[5-(3,4-dichlorophenyl)-1,3,4-oxadiazol-2-yl]methyl}-8-(3-hydroxypyrrolidin-1-yl)-1,3-dimethyl-2,3,6,7-tetrahydro-1H-purine-2,6-dione]

Continued, molecule first:

Compound | IC50
CCCCN1CCN(c2nc3c(c(=O)n(C)c(=O)n3C)n2Cc2nnc(-c3cccc(C)c3)o2)CC1 [Example 54, 8-(4-butylpiperazin-1-yl)-1,3-dimethyl-7-{[5-(3-methylphenyl)-1,3,4-oxadiazol-2-yl]methyl}-2,3,6,7-tetrahydro-1H-purine-2,6-dione] | > 1000 nM
COc1nc2c(c(=O)n(C)c(=O)n2C)n1Cc1nnc(-c2cccc(C)c2)o1 [Example 52, 8-methoxy-1,3-dimethyl-7-{[5-(3-methylphenyl)-1,3,4-oxadiazol-2-yl]methyl}-2,3,6,7-tetrahydro-1H-purine-2,6-dione] | 378 nM
Cc1cccc(-c2nnc(Cn3c(N(C)C)nc4c3c(=O)n(C)c(=O)n4C)o2)c1 [Example 48, 8-(dimethylamino)-1,3-dimethyl-7-{[5-(3-methylphenyl)-1,3,4-oxadiazol-2-yl]methyl}-2,3,6,7-tetrahydro-1H-purine-2,6-dione] | 69.4 nM
Cc1cccc(-c2nnc(Cn3c(N4CCN(C)CC4)nc4c3c(=O)n(C)c(=O)n4C)o2)c1 [Example 51, 1,3-dimethyl-7-{[5-(3-methylphenyl)-1,3,4-oxadiazol-2-yl]methyl}-8-(4-methylpiperazin-1-yl)-2,3,6,7-tetrahydro-1H-purine-2,6-dione] | 31.3 nM
Cc1cccc(-c2nnc(Cn3c(NCc4ccccc4)nc4c3c(=O)n(C)c(=O)n4C)o2)c1 [Example 50, 8-(benzylamino)-1,3-dimethyl-7-{[5-(3-methylphenyl)-1,3,4-oxadiazo-2-yl]methyl}-2,3,6,7-tetrahydro-1H-purine-2,6-dione] | 144 nM

Same assay, conditions: Table 4; 6 nM NUDT5, 50 μM ADP-Ribose, 15 minutes at room temperature

IC50 | Compound
155 nM | Cn1c(=O)c2c(nc(N3CCNCC3)n2Cc2cn(-c3ccc(Cl)c(Cl)c3)nn2)n(C)c1=O [Example 144, 7-{[1-(3,4-dichlorophenyl)-1H-1,2,3-triazol-4-yl]methyl}-1,3-dimethyl-8-(piperazin-1-yl)-2,3,6,7-tetrahydro-1H-purine-2,6-dione]
21.6 nM | Cc1cc(-c2nnc(Cn3c(N4CCNCC4)nc4c3c(=O)n(C)c(=O)n4C)o2)ccc1Cl [Example 116, 7-{[5-(4-chloro-3-methylphenyl)-1,3,4-oxadiazol-2-yl]methyl}-1,3-dimethyl-8-(piperazin-1-yl)-2,3,6,7-tetrahydro-1H-purine-2,6-dione]
255 nM | Cn1c(=O)c2c(nc(N3CCNCC3)n2Cc2nnc(-c3ccc(C#N)cc3)o2)n(C)c1=O [Example 112]
64.8 nM | Cc1cc(-c2nnc(Cn3c(Cl)nc4c3c(=O)n(C)c(=O)n4C)o2)ccc1Cl [Example 97, 8-chloro-7-{[5-(4-chloro-3-methylphenyl)-1,3,4-oxadiazol-2-yl]methyl}-1,3-dimethyl-2,3,6,7-tetrahydro-1H-purine-2,6-dione]
99 nM | Cn1c(=O)c2c(nc(N3CCNCC3)n2Cc2nnc(-c3ccc(Cl)cc3)o2)n(C)c1=O [Example 108, 7-{[5-(4-chlorophenyl)-1,3,4-oxadiazol-2-yl]methyl}-1,3-dimethyl-8-(piperazin-1-yl)-2,3,6,7-tetrahydro-1H-purine-2,6-dione]
1690 nM | Cn1c(=O)c2c(nc(N3CCNCC3)n2Cc2nnc(-c3cccnc3)o2)n(C)c1=O [Example 113, 1,3-dimethyl-8-(piperazin-1-yl)-7-{[5-(pyridin-3-yl)-1,3,4-oxadiazol-2-yl]methyl}-2,3,6,7-tetrahydro-1H-purine-2,6-dione]
140 nM | Cn1c(=O)c2c(nc(N3CCNC(C(F)(F)F)C3)n2Cc2nnc(-c3ccc(Cl)c(Cl)c3)o2)n(C)c1=O (centres unmarked) [Example 134, 7-{[5-(3,4-dichlorophenyl)-1,3,4-oxadiazol-2-yl]methyl}-1,3-dimethyl-8-[3-(trifluoromethyl)piperazin-1-yl]-2,3,6,7-tetrahydro-1H-purine-2,6-dione]

Second part, the molecule before the results:

Compound | IC50
Cn1c(=O)c2c(nc(N3CCNCC3)n2Cc2cnc(-c3ccc(Cl)cc3)s2)n(C)c1=O [Example 76, 7-{[2-(4-chlorophenyl)-1,3-thiazol-5-yl]methyl}-1,3-dimethyl-8-(piperazin-1-yl)-2,3,6,7-tetrahydro-1H-purine-2,6-dione] | 376 nM
Cn1c(=O)c2c(nc(NCC(=O)OC(C)(C)C)n2Cc2nnc(-c3ccc(Cl)c(Cl)c3)o2)n(C)c1=O [Example 84, tert-butyl 2-[(7-{[5-(3,4-dichlorophenyl)-1,3,4-oxadiazol-2-yl]methyl}-1,3-dimethyl-2,6-dioxo-2,3,6,7-tetrahydro-1H-purin-8-yl)amino]acetate] | 93.6 nM
Cn1c(=O)c2c(nc(Cl)n2Cc2nnc(-c3ccc(CS(C)(=O)=O)cc3)o2)n(C)c1=O [Example 103, 8-chloro-7-({5-[4-(methanesulfonylmethyl)phenyl]-1,3,4-oxadiazol-2-yl}methyl)-1,3-dimethyl-2,3,6,7-tetrahydro-1H-purine-2,6-dione] | 61600 nM
Cc1ccc(-c2cc(Cn3c(Cl)nc4c3c(=O)n(C)c(=O)n4C)no2)cc1 [Example 80, 8-chloro-1,3-dimethyl-7-{[5-(4-methylphenyl)-1,2-oxazol-3-yl]methyl}-2,3,6,7-tetrahydro-1H-purine-2,6-dione] | 3790 nM
COc1cc(-c2nnc(Cn3c(Cl)nc4c3c(=O)n(C)c(=O)n4C)o2)ccc1Cl [Example 98, 8-chloro-7-{[5-(4-chloro-3-methoxyphenyl)-1,3,4-oxadiazol-2-yl]methyl}-1,3-dimethyl-2,3,6,7-tetrahydro-1H-purine-2,6-dione] | 378 nM
